Data on 13 compounds can be found in BindingDB's records for doi:10.1038/350610a0 (University of Toronto, 1991).

pKi: −log10 of the molar value. Several values for one entry are separate records, joined by “and”; a condition that tells them apart may be missing. Equal values may be shown once.

One assay concerns the target T1, D(4) dopamine receptor (Rattus norvegicus, UniProt P30729).
T1 sequence (P30729 whole entry): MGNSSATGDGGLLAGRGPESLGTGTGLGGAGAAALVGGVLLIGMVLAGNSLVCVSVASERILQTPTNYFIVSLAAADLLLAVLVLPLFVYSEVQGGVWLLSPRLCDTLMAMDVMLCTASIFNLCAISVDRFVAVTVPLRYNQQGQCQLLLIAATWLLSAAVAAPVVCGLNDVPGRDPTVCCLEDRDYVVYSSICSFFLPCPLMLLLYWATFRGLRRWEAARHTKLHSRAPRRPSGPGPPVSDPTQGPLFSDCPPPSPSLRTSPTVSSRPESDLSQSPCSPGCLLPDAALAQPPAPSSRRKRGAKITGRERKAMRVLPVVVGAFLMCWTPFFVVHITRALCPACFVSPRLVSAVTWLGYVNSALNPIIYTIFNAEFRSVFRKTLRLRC
`O=c1[nH]c2ccccc2n1C1CCN(CCCC(c2ccc(F)cc2)c2ccc(F)cc2)CC1` [1-(1-(4,4-bis(4-fluorophenyl)butyl)piperidin-4-yl)-1H-benzo[d]imidazol-2(3H)-one] showed a pKi of 7.37.

Compound `CCN1CCC[C@H]1CNC(=O)c1c(O)c(Cl)cc(Cl)c1OC` [3,5-Dichloro-N-(1-ethyl-pyrrolidin-2-ylmethyl)-2-hydroxy-6-methoxy-benzamide (raclopride)] gave a pKi of 6.63.

`CC(C)C[C@H]1C(=O)N2CCC[C@H]2[C@]2(O)O[C@](NC(=O)[C@@H]3C=C4c5cccc6[nH]c(Br)c(c56)C[C@H]4N(C)C3)(C(C)C)C(=O)N12` [Bromocriptine+ (GTP+)] gave a pKi of 6.47.

As for `Nc1nc2c(ncn2[C@@H]2O[C@H](COP(=O)(O)OP(=O)(O)OP(=O)(O)O)[C@@H](O)[C@H]2O)c(=O)[nH]1` [Dopamine+ (GTP+)], the pKi is 6.35. This pKi and that of the compound before are within 0.2 log units of each other.

In turn, `CN1CCN(CCCN2c3ccccc3Sc3ccc(S(=O)(=O)N(C)C)cc32)CC1` [NSC_92178] showed a pKi of 7.28. Compared with the last compound, the pKi is 0.93 log units higher.

In another assay the target is D(2) dopamine receptor (Homo sapiens, UniProt P14416).
Sequence of D(2) dopamine receptor (P14416 whole entry): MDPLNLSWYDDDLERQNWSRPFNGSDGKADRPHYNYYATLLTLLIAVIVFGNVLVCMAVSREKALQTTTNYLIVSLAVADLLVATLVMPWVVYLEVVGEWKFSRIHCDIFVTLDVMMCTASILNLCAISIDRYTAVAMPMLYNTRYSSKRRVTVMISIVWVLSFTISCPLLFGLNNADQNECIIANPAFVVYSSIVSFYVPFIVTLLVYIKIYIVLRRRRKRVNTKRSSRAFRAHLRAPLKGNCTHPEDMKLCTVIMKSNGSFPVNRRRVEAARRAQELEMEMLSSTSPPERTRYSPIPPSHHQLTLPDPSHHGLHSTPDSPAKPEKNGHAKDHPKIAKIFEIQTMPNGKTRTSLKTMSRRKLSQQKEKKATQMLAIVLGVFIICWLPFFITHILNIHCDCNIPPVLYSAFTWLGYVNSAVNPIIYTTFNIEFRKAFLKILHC
As to `CC(C)C[C@H]1C(=O)N2CCC[C@H]2[C@]2(O)O[C@](NC(=O)[C@@H]3C=C4c5cccc6[nH]c(Br)c(c56)C[C@H]4N(C)C3)(C(C)C)C(=O)N12` [Bromocriptine+ (GTP+)], the pKi was 7.90.

The target in the next assay is T2, Dopamine receptor D4 (Canis lupus familiaris, UniProt Q589Y6).
T2 sequence (Q589Y6 whole entry): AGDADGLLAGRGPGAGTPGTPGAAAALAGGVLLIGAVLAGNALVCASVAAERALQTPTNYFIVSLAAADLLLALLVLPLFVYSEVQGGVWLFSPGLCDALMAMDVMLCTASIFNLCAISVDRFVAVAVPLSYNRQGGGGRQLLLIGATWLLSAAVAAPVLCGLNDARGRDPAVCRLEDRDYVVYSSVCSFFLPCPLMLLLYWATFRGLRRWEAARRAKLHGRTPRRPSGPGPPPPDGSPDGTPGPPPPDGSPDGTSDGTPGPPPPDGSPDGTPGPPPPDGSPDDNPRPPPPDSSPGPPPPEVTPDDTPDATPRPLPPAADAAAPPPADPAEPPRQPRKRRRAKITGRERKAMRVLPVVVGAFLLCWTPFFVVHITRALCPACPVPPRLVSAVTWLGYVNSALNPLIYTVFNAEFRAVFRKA
As to `NCCc1ccc(O)c(O)c1`, the pKi is 8.12 and 7.55.

As to `CN1CCN(CCCN2c3ccccc3Sc3ccc(C(F)(F)F)cc32)CC1`, the pKi was 8.92 and 8.52.

For `O=C(c1ccc(F)cc1)C1CCN(CCn2c(=O)[nH]c3ccccc3c2=O)CC1` [3-(2-{4-[(4-fluorophenyl)carbonyl]piperidin-1-yl}ethyl)-1,2,3,4-tetrahydroquinazoline-2,4-dione], the pKi was 6.72 and 6.83.

Take `CN1CCN(C2=c3ccccc3=Nc3ccc(Cl)cc3N2)CC1` [6-chloro-10-(4-methylpiperazin-1-yl)-2,9-diazatricyclo[9.4.0.0^{3,8}]pentadeca-1,3(8),4,6,10,12,14-heptaene]: the pKi was 8.05.

Turning to `CN1CCc2cccc3c2[C@H]1Cc1ccc(O)c(O)c1-3` [APOKYN], the pKi was 8.70 and 8.39.

Turning to `CCCN1CCC[C@@H]2Cc3n[nH]cc3C[C@H]21` [NSC_54562], the pKi is 8.32 and 7.34.

On to `NCC(O)c1ccc(O)c(O)c1` (stereo not drawn) [Noradrenaline,(+)], for which the pKi is 5.22 and 5.75.

The compound `NCCc1c[nH]c2ccc(O)cc12` [[3H]-5-HT] had a pKi of 5.38.
